{"source": "the NIST ThermoML archive (doi:10.1016/j.jct.2013.01.032)", "details": "101.33 kPa, Liquid; for speed of sound: Sing-around technique in a fixed-path interferometer; for mass density: Vibrating tube method", "note": "Numbers after ± are expanded uncertainties.", "data": [{"smiles": "CCCCn1cc[n+](C)c1.O=S(=O)([O-])C(F)(F)F", "note": "[1-butyl-3-methylimidazolium trifluoromethanesulfonate]", "values": [{"measurement": "speed of sound", "setting": "293.15 K", "result": "1402.9 ± 1.3", "unit": "m/s"}, {"measurement": "mass density", "setting": "293.15 K", "result": "1303.7 ± 0.6", "unit": "kg/m3"}, {"measurement": "speed of sound", "setting": "308.15 K", "result": "1369.1 ± 1.3", "unit": "m/s"}, {"measurement": "mass density", "setting": "308.15 K", "result": "1291.7 ± 0.6", "unit": "kg/m3"}, {"measurement": "speed of sound", "setting": "323.15 K", "result": "1336.5 ± 1.3", "unit": "m/s"}, {"measurement": "mass density", "setting": "323.15 K", "result": "1279.9 ± 0.6", "unit": "kg/m3"}]}, {"smiles": "CCCCO", "note": "[butan-1-ol]", "values": [{"measurement": "speed of sound", "setting": "293.15 K", "result": "1256.2 ± 0.8", "unit": "m/s"}, {"measurement": "mass density", "setting": "293.15 K", "result": "809.54 ± 0.14", "unit": "kg/m3"}, {"measurement": "speed of sound", "setting": "308.15 K", "result": "1205.9 ± 0.8", "unit": "m/s"}, {"measurement": "mass density", "setting": "308.15 K", "result": "798.01 ± 0.15", "unit": "kg/m3"}, {"measurement": "speed of sound", "setting": "323.15 K", "result": "1155.7 ± 0.8", "unit": "m/s"}, {"measurement": "mass density", "setting": "323.15 K", "result": "786.15 ± 0.15", "unit": "kg/m3"}]}, {"smiles": "CCC(C)O", "note": "(stereo not given) [butan-2-ol]", "values": [{"measurement": "speed of sound", "setting": "293.15 K", "result": "1230 ± 1", "unit": "m/s"}, {"measurement": "mass density", "setting": "293.15 K", "result": "806.56 ± 0.18", "unit": "kg/m3"}, {"measurement": "speed of sound", "setting": "308.15 K", "result": "1175.8 ± 0.9", "unit": "m/s"}, {"measurement": "mass density", "setting": "308.15 K", "result": "794 ± 0.19", "unit": "kg/m3"}, {"measurement": "speed of sound", "setting": "323.15 K", "result": "1120.3 ± 0.9", "unit": "m/s"}, {"measurement": "mass density", "setting": "323.15 K", "result": "780.5 ± 0.19", "unit": "kg/m3"}]}, {"smiles": "CCCCCO", "note": "[pentan-1-ol]", "values": [{"measurement": "speed of sound", "setting": "293.15 K", "result": "1292.7 ± 1.3", "unit": "m/s"}, {"measurement": "mass density", "setting": "293.15 K", "result": "814.53 ± 0.31", "unit": "kg/m3"}, {"measurement": "speed of sound", "setting": "308.15 K", "result": "1242.4 ± 1.3", "unit": "m/s"}, {"measurement": "mass density", "setting": "308.15 K", "result": "803.52 ± 0.31", "unit": "kg/m3"}, {"measurement": "speed of sound", "setting": "323.15 K", "result": "1192.7 ± 1.3", "unit": "m/s"}, {"measurement": "mass density", "setting": "323.15 K", "result": "792.15 ± 0.31", "unit": "kg/m3"}]}, {"smiles": "CCCO", "note": "[propan-1-ol]", "values": [{"measurement": "speed of sound", "setting": "293.15 K", "result": "1223.9 ± 0.8", "unit": "m/s"}, {"measurement": "mass density", "setting": "293.15 K", "result": "803.92 ± 0.14", "unit": "kg/m3"}, {"measurement": "speed of sound", "setting": "308.15 K", "result": "1172.6 ± 0.8", "unit": "m/s"}, {"measurement": "mass density", "setting": "308.15 K", "result": "791.84 ± 0.15", "unit": "kg/m3"}, {"measurement": "speed of sound", "setting": "323.15 K", "result": "1122 ± 0.8", "unit": "m/s"}, {"measurement": "mass density", "setting": "323.15 K", "result": "779.33 ± 0.16", "unit": "kg/m3"}]}, {"smiles": "CC(C)O", "note": "[propan-2-ol]", "values": [{"measurement": "speed of sound", "setting": "293.15 K", "result": "1156.7 ± 0.8", "unit": "m/s"}, {"measurement": "mass density", "setting": "293.15 K", "result": "785.1 ± 0.15", "unit": "kg/m3"}, {"measurement": "mass density", "setting": "308.15 K", "result": "772.31 ± 0.16", "unit": "kg/m3"}, {"measurement": "speed of sound", "setting": "323.15 K", "result": "1050.8 ± 0.7", "unit": "m/s"}, {"measurement": "mass density", "setting": "323.15 K", "result": "758.7 ± 0.17", "unit": "kg/m3"}]}]}
